The nature of data set [1]: Pharmacokinetic profile in mice. To be noted: mouse; fasted male Hilltop mice, 10 mg/kg oral gavage, plasma, mean of three mice. The format is in vivo. How it is done: Pharmacokinetic Profile in Mice
In this series of studies, the pharmacokinetic profile characteristics of compounds of the present invention were evaluated. The plasma concentration levels of the compounds were monitored in the blood stream (i.e., plasma) after oral gavage using Cmax, and area under the curve (AUC).
8 week old male Hilltop mice were fasted overnight. Animals were randomized into groups (n=9) by body weight. Mice were dosed with 10 mg/kg compound (in 20% PEG400/80% 0.5% carboxymethylcellulose (medium viscosity)+0.25% Tween-80) at a volume of 10 mL/kg through oral gavage. Blood was collected via orbital bleeding at 0, 0.25, 0.5, 1, 2, and 4 h post-dose, with no one mouse having more than 3 blood draws. Blood was collected in EDTA coated tubes. Samples were stored at −20° C. until analysis.
Quantitation of compound levels in plasma was accomplished by LC-MS/MS analysis. Standard curve and quality control samples were prepared in male CD-1 mouse plasma containing EDTA K^2+ as an anticoagulant at final concentrations ranging from 500 to 0.1 ng/mL. The plasma samples, calibration curve standards, and quality control samples were prepared in an identical method in a 96-well deep plate (1 mL) with a quenching solution (1:1 mixed acetonitrile:methanol containing the internal standard Reserpine @ 400 ng/mL). Low volume samples were supplemented with CD-1 mouse plasma. The plate was mixed on multi-tube votex for 1 min and centrifuged at 4000 rpm for 30 min at 4° C. (Sorvall® Super T21) before LC-MS/MS analysis. LC conditions were developed and optimized based on each compound as needed. The outlet of the column was coupled to AB Sciex 4000 QTrap Mass Spectrometer (AB Sciex, Brugg Switzerland). Detection was carried out using multiple reaction monitoring mode with positive-ion detection focusing. The pharmacokinetic parameters were derived from the plasma-time data and calculated using the standard non-compartmental method with WinNonlin (Pharsight, Mountain View, Calif.) or PK Solver (Comp. Meth. Prog. Biomed. (2010), 99, 306-314).
Values reported are the mean plasma concentration of three mice.

In the next data set the target is T1, human TGR5 receptor (Homo sapiens, UniProt Q8TDU6).
T1 construct: host or cells: CHO-K1 (hTGR5-CHO cells)
T1 sequence (Q8TDU6 1-330): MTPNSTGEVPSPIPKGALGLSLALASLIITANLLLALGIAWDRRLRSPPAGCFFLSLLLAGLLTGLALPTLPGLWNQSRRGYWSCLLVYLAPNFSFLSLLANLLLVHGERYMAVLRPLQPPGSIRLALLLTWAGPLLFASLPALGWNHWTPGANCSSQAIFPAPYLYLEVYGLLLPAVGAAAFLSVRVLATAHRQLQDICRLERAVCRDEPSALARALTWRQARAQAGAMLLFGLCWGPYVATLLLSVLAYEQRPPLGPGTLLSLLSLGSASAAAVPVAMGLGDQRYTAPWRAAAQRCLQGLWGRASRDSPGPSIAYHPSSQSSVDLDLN
Kind of data set: Human TGR5 cAMP production assay. Format: cell-based. As to conditions: human TGR5, luminescent cAMP assay; coded A-D; read-out: Human TGR5 Lum. cAMP Activity (EC50). The gist of the method: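 CHO-K1 cells stably expressing human TGR5, with IBMX and cAMP antibody, were exposed to half-log serially diluted compound for 1 h at room temperature. cAMP measured by enzyme-fragment complementation luminescence (XS+ kit) after overnight incubation; EC50 values reported.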

The text below walks through data of patent US11236055B2 (Venenum Biodesign, LLC, priority 2016, dated 2022).

As to `CCc1cnccc1-c1cccc(C2CN(C(=O)CS(=O)(=O)O)CCN2S(=O)(=O)c2cccc(Cl)c2C)c1` (stereo not shown) [Compound 49, 2-(4-((3-Chloro-2-methylphenyl)sulfonyl)-3-(3-(3-ethylpyridin-4-yl)phenyl)piperazin-1-yl)-2-oxoethanesulfonic acid], the peak level in data set [1] (Cmax) was 2.1 ng/mL. On human TGR5 receptor, the EC50 is less than 100 nM.
In the same order, the values of `Cc1cnccc1-c1cccc([C@H](C)N(CCCC(=O)NCCS(=O)(=O)NCCC(=O)O)S(=O)(=O)c2cccc(Cl)c2C)c1` [Compound 21AL] are 7.6 ng/mL and less than 100 nM.
In data set [1], `Cc1cnccc1-c1cccc([C@H](C)N(CCCCC(=O)NCCS(=O)(=O)NCCC(=O)O)S(=O)(=O)c2ccccc2C(F)(F)F)c1` [Compound 20BM] returned a Cmax of 0.6 ng/mL. The EC50 at human TGR5 receptor is less than 100 nM.
Compound `Cc1cnccc1-c1cccc([C@H](C)N(CCCCNC(=O)CS(=O)(=O)O)S(=O)(=O)c2ccccc2C(F)(F)F)c1` [Compound 31AA, (S)-2-((4-(N-(1-(3-(3-methylpyridin-4-yl)phenyl)ethyl)-2-(trifluoromethyl)phenylsulfonamido)butyl)amino)-2-oxoethanesulfonic acid] gave a Cmax in data set [1] of 4.4 ng/mL. Moreover, the EC50 at human TGR5 receptor is less than 100 nM.
The like results for `CCc1cnccc1-c1cccc(C(C)(C)NS(=O)(=O)c2ccccc2C(F)(F)F)c1` [Compound 5, N-(2-(3-(3-ethylpyridin-4-yl)phenyl)propan-2-yl)-2-(trifluoromethyl)benzenesulfonamide] were, in that order, 3.1 ng/mL and less than 100 nM.
The like results for `Cc1cnccc1-c1cccc(C(C)(C)N(CCCC(=O)O)S(=O)(=O)c2ccccc2C(F)(F)F)c1` [Compound 14, 4-(N-(2-(3-(3-methylpyridin-4-yl)phenyl)propan-2-yl)-2-(trifluoromethyl)phenylsulfonamido)butanoic acid] were, in that order, 1080 ng/mL and less than 100 nM.
Take `CCc1cnccc1-c1cccc(C2CN(C(=O)CCC(=O)O)CCN2S(=O)(=O)c2cccc(Cl)c2C)c1` (racemic) [Compound 46, (+/−) 4-(4-((3-Chloro-2-methylphenyl)sulfonyl)-3-(3-(3-ethylpyridin-4-yl)phenyl)piperazin-1-yl)-4-oxobutanoic acid]: the Cmax in data set [1] is 436 ng/mL. Also, the EC50 at human TGR5 receptor was less than 100 nM.
As to `Cc1cnccc1-c1cccc([C@H](C)N(CCCCNC(=O)NCCS(=O)(=O)NCC(=O)O)S(=O)(=O)c2ccccc2C(F)(F)F)c1` [Compound 28AA, (S)-2-(3-(4-(N-(1-(3-(3-methylpyridin-4-yl)phenyl)ethyl)-2-(trifluoromethyl)phenylsulfonamido)butyl)ureido)ethanesulfonamido acetic acid], the concentration in data set [1] peaked (Cmax) at 0.7 ng/mL. In addition, the EC50 on human TGR5 receptor was less than 100 nM.
On to `Cc1cnccc1-c1cccc(C(C)(C)N(CCCNC(=O)NCS(=O)(=O)O)S(=O)(=O)c2cccc(Cl)c2C)c1` [Compound 29, (3-(3-((3-Chloro-2-methyl-N-(2-(3-(3-methylpyridin-4-yl)phenyl)propan-2-yl)phenyl)sulfonamide)propyl)ureido) methanesulfonic acid], for which, in data set [1], the Cmax was determined as 2.5 ng/mL. Besides, on human TGR5 receptor, the EC50 is less than 100 nM.
The like results for `Cc1cnccc1-c1cccc(C(C)(C)NS(=O)(=O)c2cccc(C(F)(F)F)c2)c1` [Compound 5AA, N-(2-(3-(3-methylpyridin-4-yl)phenyl)propan-2-yl)-3-(trifluoromethyl)benzenesulfonamide] were, in that order, 128 ng/mL and less than 100 nM.
The compound `Cc1cnccc1-c1cccc(C(C)(C)N(CCCNC(=O)NCCS(=O)(=O)O)S(=O)(=O)c2cccc(Cl)c2C)c1` [Compound 29AA, 2-(3-(3-((3-Chloro-2-methyl-N-(2-(3-(3-methylpyridin-4-yl)phenyl)propan-2-yl)phenyl)sulfonamide)propyl)ureido)ethane-1-sulfonic acid] registered a Cmax in data set [1] of 1.5 ng/mL. In addition, on human TGR5 receptor, the EC50 is less than 100 nM.
In the same order, the values of `Cc1cnccc1-c1cccc([C@H](C)N(CCCCNC(=O)NCS(=O)(=O)O)S(=O)(=O)c2ccccc2C(F)(F)F)c1` [Compound 28AC, (S)-(3-(4-(N-(1-(3-(3-methylpyridin-4-yl)phenyl)ethyl)-2-(trifluoromethyl)phenylsulfonamido)butyl)ureido)methanesulfonic acid] are 0.8 ng/mL and less than 100 nM.
Consider `Cc1cnccc1-c1cccc([C@H](C)N(CCCCNC(=O)[C@@H](N)CS(=O)(=O)O)S(=O)(=O)c2ccccc2C(F)(F)F)c1` [Compound 31AC, (R)-2-amino-3-((4-(N-((S)-1-(3-(3-methylpyridin-4-yl)phenyl)ethyl)-2-(trifluoromethyl)phenylsulfonamido)butyl)amino)-3-oxopropane-1-sulfonic acid], for which, in data set [1], the peak level (Cmax) was 1.8 ng/mL. The EC50 on human TGR5 receptor is less than 100 nM.
The like results for `CCc1cnccc1-c1cccc([C@H](C)N(CCCCNC(=O)NCS(=O)(=O)O)S(=O)(=O)c2ccccc2C(F)(F)F)c1` [Compound 28AH, (S)-(3-(4-(N-(1-(3-(3-ethylpyridin-4-yl)phenyl)ethyl)-2-(trifluoromethyl)phenylsulfonamido)butyl)ureido)methanesulfonic acid] were, in that order, 4.6 ng/mL and less than 100 nM.
For `CCc1cnccc1-c1cccc([C@H](C)N(CCCC(=O)NCCNS(N)(=O)=O)S(=O)(=O)c2cccc(Cl)c2C)c1` [Compound 37AA, (S)-4-(3-chloro-N-(1-(3-(3-ethylpyridin-4-yl)phenyl)ethyl)-2-methylphenylsulfonamido)-N-(2-(sulfamoylamino)ethyl)butanamide], the highest level in data set [1] (Cmax) was 39.4 ng/mL. In addition, the 50% effective concentration (EC50) on human TGR5 receptor is less than 100 nM.
In the case of `Cc1cnccc1-c1cccc([C@H](C)N(CCCC(=O)NCCNS(=O)(=O)NCC(=O)O)S(=O)(=O)c2cccc(Cl)c2C)c1` [Compound 38], the concentration in data set [1] peaked (Cmax) at 3.6 ng/mL. Moreover, on human TGR5 receptor, the EC50 is less than 100 nM.
In data set [1], `CCc1cnccc1-c1cccc([C@H](C)N(CCCC(=O)NC[C@@H](O)[C@H](O)[C@@H](O)[C@@H](O)CO)S(=O)(=O)c2cccc(Cl)c2C)c1` [Compound 20AN, 4-(3-chloro-N-((S)-1-(3-(3-ethylpyridin-4-yl)phenyl)ethyl)-2-methylphenylsulfonamido)-N-((2R,3S,4S,5S)-2,3,4,5,6-pentahydroxyhexyl)butanamide] showed a Cmax of 1.7 ng/mL. Also, at human TGR5 receptor, the EC50 is less than 100 nM.
`Cc1cnccc1-c1cccc(C(C)(C)N(CCCC(=O)NCS(=O)(=O)O)S(=O)(=O)c2ccccc2C(F)(F)F)c1` [Compound 20AB]: the concentration in data set [1] peaked (Cmax) at 1.5 ng/mL. Moreover, the EC50 on human TGR5 receptor is less than 100 nM.
The like results for `CCc1cnccc1-c1cccc([C@H](C)N(CCCC(=O)NCCS(=O)(=O)NCC(=O)O)S(=O)(=O)c2ccccc2C)c1` [Compound 20BU, (S)-2-(4-(2-methyl-N-(1-(3-(3-ethylpyridin-4-yl)phenyl)ethyl)phenylsulfonamido)butanamidoethylsulfonamido)acetate] were, in that order, 1.1 ng/mL and less than 100 nM.
`CCc1cnccc1-c1cccc([C@H](C)N(CCCC(=O)NCCS(=O)(=O)O)S(=O)(=O)c2ccccc2C)c1` [Compound 20AR, (S)-2-(4-(N-(1-(3-(3-ethylpyridin-4-yl)phenyl)ethyl)-2-methylphenyl-sulfonamido)butanamido)ethane sulfonic acid] registered a Cmax in data set [1] of 3.2 ng/mL. In addition, the EC50 at human TGR5 receptor was less than 100 nM.
The like results for `Cc1cnccc1-c1cccc([C@H](C)N(CCCC(=O)NCCNS(=O)(=O)CCC(=O)O)S(=O)(=O)c2cccc(Cl)c2C)c1` [Compound 26AB] were, in that order, 2.6 ng/mL and less than 100 nM.
Regarding `Cc1cnccc1-c1cccc([C@H](C)N(CCCCC(=O)NCCS(=O)(=O)O)S(=O)(=O)c2cccc(Cl)c2C)c1` [Compound 20AH, (S)-2-(5-(3-chloro-2-methyl-N-(1-(3-(3-methylpyridin-4-yl)phenyl)ethyl)phenylsulfonamido)pentanamido)ethanesulfonic acid], the concentration in data set [1] peaked (Cmax) at 0.9 ng/mL. The EC50 on human TGR5 receptor is less than 100 nM.
As for `Cc1cnccc1-c1cccc([C@H](C)N(CCCC(=O)NCCNS(=O)(=O)CC(=O)O)S(=O)(=O)c2cccc(Cl)c2C)c1` [Compound 26AA], in data set [1], the Cmax amounted to 1.4 ng/mL. In addition, the EC50 at human TGR5 receptor was less than 100 nM.
